Measurements from article PMC9861386, “N-Heterocyclic Carbene-Iridium Complexes as Photosensitizers for In Vitro Photodynamic Therapy to Trigger Non-Apoptotic Cell Death in Cancer Cells” (Molecules, 2023).

Legend:
[1] = Octanol–water partition coefficient, shake-flask method; format: physicochemical; settings: n-octanol/water, UV absorbance 260 nm
Method: Lipophilicities of all complexes have been measured by the classical shake-flask method, using UV absorption. The Log p values range from -0.063 to 0.861 in increasing order –0.063 (4a), 0.035 (4d), 0.519 (4f), 0.581 (4c), 0.842 (4b), 0.847 (4e) and 0.861 (4g).
The octanol–water partition coefficients (P) of 4a to 4g were determined using a shake-flask method. Water (100 mL, distilled after milli-Q purification) and n-octanol (100 mL, Sigma-Aldrich, St. Louis, MO, USA, ACS spectrophotometric grade, ≥99%) were shaken together for 24 h to allow saturation of both phases. Stock solutions of the […] compounds (50 μM) were prepared in the aqueous phase and aliquots (1 mL) of each of these stock solutions were then added to an equal volume of the n-octanol phase. The resultant biphasic solutions were mixed for 1 h and then centrifuged (3000× g, 5 min) (Eppendorf Centrifuges 5415R and 5804R) to separate the phases. The concentrations of the complexes in the organic and aqueous phases were then determined using UV absorbance spectroscopy (260 nm). Log P was defined as the logarithm of the ratio of the concentrations of the studied complex in the organic and aqueous phases (Log P = Log {[Ir(org)]/[Ir(aq)]}; values reported are the means of at least two separate determinations).

[2] = Photophysical measurements (emission, quantum yield, lifetime) in CH2Cl2; format: physicochemical; settings: for τ1 excited-state lifetime: CH2Cl2; for ΦPL emission quantum yield: CH2Cl2, 298 K, references POPOP and quinine sulfate
Excerpt: All complexes have been photophysically investigated at standard pressure in CH2Cl2 at 298 K. The absorption spectra of complexes 4a to 4g in CH2Cl2 at 298 K are shown in Figure 7. The strong absorption bands below 300 nm correspond to spin-allowed ^1π→π* electronic ligand-centered (LC) transitions. The structureless bands at 300–360 nm are attributed to ppy-to-ppy ^1π→π* […] charge transfer (LLCT) and Ir-to-ppy metal-to-ligand charge transfer (MLCT) transitions. The lowest-lying bands in the visible region can be assigned to both singlet and triplet MLCT transitions. No significant difference in the absorption spectra of complexes 4a to 4g can be found in the CH2Cl2 solution.
The luminescence spectra of complexes 4a to 4f in CH2Cl2 at 298 K are shown in Figure 8 and their photophysical data are summarized in Table 1.
The relative emission quantum yields (ΦPL) of these complexes in CH2Cl2 at room temperature were measured by using POPOP and quinine sulfate in 1 N H2SO4 as standard references (ΦPL = 97% and ΦPL = 54%, respectively). […] In addition, the excited-state lifetimes of complexes 4a to 4d are in the range of 166.4–190.7 ns, indicating the phosphorescence nature of the emissions.
UV/Vis absorption spectra were recorded at RT on solutions contained in quartz cuvettes (optical pathlength 1 cm, Hellma® (HELLMA, Müllheim, Germany)) with a PerkinElmer® (PerkinElmer, Waltham, MA, USA) UV/VIS/NIR spectrophotometer Lambda 950 and a PerkinElmer® detector UV/VIS/NIR Accessory 2D Detector Module.
Fluorescence and phosphorescence emission spectra were obtained with a HORIBA JOBIN YVON (Bensheim, Germany) fluromax-4 and spectrofluorometer.
Luminescence quantum yields were measured according to the method of Demas and Crosby, on solution samples at RT. The quantum yield is defined as: ΦS=ΦR*As/Ar* ηs/ηr^2^2 where ΦS is the quantum yield of the sample, ΦR is the known quantum yield of the reference standard at the area subtended by the emission band (on a wavelength scale) and η is the refractive index of the solvent used for the preparation of the solution. As (related to the sample) and Ar (related to the reference) must be excitation wavelength. Different standards were selected depending on the spectral region of the interest: POPOP in hexane (Φ = 97%) and QUININNE in water (Φ = 54%).
Fluorescence lifetime measurements were performed by an Edinburgh FLS920 spectrofluorometer equipped with a TCC900 card for data acquisition in time-correlated single-photon counting experiments (0.5 ns time resolution) with a D2 lamp and an LDH-P-C-405 pulsed diode laser. The estimated experimental error was 2 nm on the band maximum (5% on the lifetime, 10% on the fluorescence quantum yield).

[3] = test system: MCF7/FasR and MCF7/FasR/Bcl-xL cells; assay: ATP quantification (CellTiter-Glo); format: cell-based, human; settings: increasing concentration, 458 nm irradiation, 72 h
Method: ATP and glutathione (GSH) contents were measured with the Promega CellTiter-Glo (Cat#G7570) and GSH-Glo (cat#6911) luminescent assays, respectively, according to the manufacturer’s recommendations.
Figure 13 Evaluation of apoptotic biomarkers. MCF7/FasR and MCF7/FasR/Bcl-xL cells were irradiated at 458 nm in presence of the indicated concentration of complex 4a or treated with […] TNFα for 72 h. (A) Cytosolic extracts from MCF7/FasR and MCF7/FasR/Bcl-xL cells were separated by SDS-PAGE and probed with anti-PARP, anti-caspase-7 and anti-caspase-8. Migrations indicated are: full-length PARP p113, cleaved PARP p89, full-length caspase-7 and full-length caspase-8. (B) MTT, ATP and GSH assays were evaluated in duplicate samples. Data are expressed as percent (%) of untreated cells and are the means of 3 independent experiments (***, p < 0.0001, NS, not significant).

SMILES	Log P [1]	τ1 excited-state lifetime [2] [ns]	ΦPL emission quantum yield [2] [%]	ATP level [3]
CC(C)[n+]1ccn2[c]1[Ir-3]13([c]4ccccc4-c4cccc[n+]41)([c]1ccccc1-c1cccc[n+]13)[c]1n(cc[n+]1C(C)C)C2.F[P-](F)(F)(F)(F)F [Complex 4a]	–0.063	191	1.2	loss of ATP
CC(C)C[n+]1ccn2[c]1[Ir-3]13([c]4ccccc4-c4cccc[n+]41)([c]1ccccc1-c1cccc[n+]13)[c]1n(cc[n+]1CC(C)C)C2.F[P-](F)(F)(F)(F)F [Complex 4b]	0.842	166	1.6	–
F[P-](F)(F)(F)(F)F.c1ccc(C[n+]2ccn3[c]2[Ir-3]24([c]5ccccc5-c5cccc[n+]52)([c]2ccccc2-c2cccc[n+]24)[c]2n(cc[n+]2Cc2ccccc2)C3)cc1 [Complex 4c]	0.581	180	1.6	–
CSc1ccc(-[n+]2ccn3[c]2[Ir-3]24([c]5ccccc5-c5cccc[n+]52)([c]2ccccc2-c2cccc[n+]24)[c]2n(cc[n+]2-c2ccc(SC)cc2)C3)cc1.F[P-](F)(F)(F)(F)F [Complex 4d]	0.035	167	1.1	–
